Results from US8217066B2, “Compounds as lysophosphatidic acid receptor antagonists” (Amira Pharmaceuticals, Inc., priority 2009, dated 2012).

Target: T1, human LPA1 (Homo sapiens, UniProt Q92633)
T1 construct: the full-length cDNA for human LPA1 was obtained by PCR of the reverse transcription reaction; expressed in transfected cells
Assay: LPA1 calcium flux assay (HLPA1 Ca Flux)
Assay type: cell-based
Conditions: CHO cells stably expressing human LPA1, stimulated with 10 nM LPA
Description: A 1.1 kb cDNA encoding the human LPA1 receptor was cloned from human lung. Human lung RNA (Clontech Laboratories, Inc. USA) was reverse transcribed using the RETROscript kit (Ambion, Inc.) and the full-length cDNA for human LPA1 was obtained by PCR of the reverse transcription reaction. The nucleotide sequence of the cloned human LPA1 was determined by sequencing and confirmed to be identical to the published human LPA1 sequence (An et al. Biochem. Biophys. Res. Commun. 231:619 (1997). The cDNA was cloned into the pcDNA5/FRT expression plasmid and transfected in CHO cells using lipofectamine 2000 (Invitrogen Corp., USA). Clones stably expressing human LPA1 were selected using hygromycin and identified as cells that show Ca-influx in response to LPA.
Human LPA1 or LPA3 expressing CHO cells are seeded at 20,000-45,000 cells per well in a 96-well poly-D-lysine coated plate one or two days before the assay. Prior to the assay, the cells are washed once with PBS and then cultured in serum-free media overnight. On the day of the assay, a calcium indicator dye (Calcium 4, Molecular Devices) in assay buffer (HBSS with Ca^2+ and Mg^2+ and containing 20 mM Hepes and 0.3% fatty-acid free human serum albumin) is added to each well and incubation continued for 1 hour at 37° C. […] of test compounds in 2.5% DMSO are added to the cells and incubation continued at room temperature for 30 minutes. Cells are the stimulated by the addition of 10 nM LPA and intracellular Ca^2+ measured using the Flexstation 3 (Molecular Devices). IC50s are determined using Graphpad prism analysis of drug titration curves.

T1 sequence (Q92633 whole entry): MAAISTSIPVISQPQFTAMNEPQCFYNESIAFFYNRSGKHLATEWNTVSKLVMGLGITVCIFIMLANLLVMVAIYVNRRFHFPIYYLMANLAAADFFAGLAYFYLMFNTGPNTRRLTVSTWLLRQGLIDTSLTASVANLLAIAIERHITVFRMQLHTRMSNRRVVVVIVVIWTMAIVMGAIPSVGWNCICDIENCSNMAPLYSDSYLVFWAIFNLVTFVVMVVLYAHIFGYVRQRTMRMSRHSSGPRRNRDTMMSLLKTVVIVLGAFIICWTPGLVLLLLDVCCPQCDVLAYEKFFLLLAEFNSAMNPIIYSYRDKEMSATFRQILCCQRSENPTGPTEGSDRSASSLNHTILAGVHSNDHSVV

IC50 [nM] | SMILES
< 300 | CCC(CCc1ccccc1)Nc1c(C)noc1-c1ccc(-c2ccc(C3(C(=O)O)CC3)cc2)cc1 (stereo not shown) [Compound 66, 1-{4′-[4-(1-Ethyl-3-phenyl-propylamino)-3-methyl-isoxazol-5-yl]-biphenyl-4-yl}-cyclopropanecarboxylic acid]
1000 to 50000 | Cc1noc(-c2ccc(-c3ccc(C4(C(=O)O)CC4)cc3)cc2)c1CC(O)CNCc1ccccc1 (stereo not shown) [Compound 27, 1-{4′-[4-(3-Benzylamino-2-hydroxy-propyl)-3-methyl-isoxazol-5-yl]-biphenyl-4-yl}-cyclopropanecarboxylic acid]
< 300 | Cc1noc(-c2ccc(-c3ccc(C4(C(=O)O)CC4)cc3)cc2)c1C(O)CCc1cccc(C(F)(F)F)c1 (stereo not shown) [Compound 35, 1-(4′-{4-[1-Hydroxy-3-(3-trifluoromethyl-phenyl)-propyl]-3-methyl-isoxazol-5-yl}-biphenyl-4-yl)-cyclopropanecarboxylic acid]
< 300 | Cc1noc(-c2ccc(-c3ccc(C4(C(=O)NS(C)(=O)=O)CC4)cc3)cc2)c1CSCCc1ccccc1 [Compound 71, N-[1-[4′-(3-Methyl-4-phenethylsulfanylmethyl-isoxazol-5-yl)-biphenyl-4-yl]-cyclopropanecarbonyl]-methanesulfonamide]
< 300 | Cc1cccc(CCCC(O)c2c(C)noc2-c2ccc(-c3ccc(C4(C(=O)O)CC4)cc3)cc2)c1 (stereo not shown) [Compound 37, 1-{4′-[4-(1-Hydroxy-4-m-tolyl-butyl)-3-methyl-isoxazol-5-yl]-biphenyl-4-yl}-cyclopropanecarboxylic acid]
300 to 1000 | Cc1noc(-c2ccc(-c3ccc(C4(C(=O)O)CC4)cc3)cc2)c1CCNCc1ccccc1 [Compound 28, 1-{4′-[4-(2-Benzylamino-ethyl)-3-methyl-isoxazol-5-yl]-biphenyl-4-yl}-cyclopropanecarboxylic acid]
< 300 | Cc1noc(-c2ccc(-c3ccc(C4(C(=O)O)CC4)cc3)cc2)c1C(O)C(F)(F)CCc1ccc(F)cc1 (stereo not shown) [Compound 62, 1-(4′-{4-[2,2-Difluoro-4-(4-fluoro-phenyl)-1-hydroxy-butyl]-3-methyl-isoxazol-5-yl}-biphenyl-4-yl)-cyclopropanecarboxylic acid]
< 300 | Cc1noc(-c2ccc(-c3ccc(C4(C(=O)O)CC4)cc3)cc2)c1C(O)CCCc1ccccc1C(F)(F)F (stereo not shown) [Compound 40, 1-(4′-{4-[1-Hydroxy-4-(2-trifluoromethyl-phenyl)-butyl]-3-methyl-isoxazol-5-yl}-biphenyl-4-yl)-cyclopropanecarboxylic acid]
< 300 | Cc1noc(-c2ccc(-c3ccc(C4(C(=O)O)CC4)cc3)cc2)c1NC(C)CCc1cccc(C(F)(F)F)c1 (stereo not shown) [Compound 31, 1-(4′-{3-Methyl-4-[1-methyl-3-(3-trifluoromethyl-phenyl)-propylamino]-isoxazol-5-yl}-biphenyl-4-yl)-cyclopropanecarboxylic acid]
< 300 | Cc1noc(-c2ccc(-c3ccc(C4(C(=O)O)CC4)cc3)cc2)c1CSCCc1ccccc1 [Compound 10, 1-[4′-(3-Methyl-4-phenethylsulfanylmethyl-isoxazol-5-yl)-biphenyl-4-yl]-cyclopropanecarboxylic acid]
< 300 | Cc1noc(-c2ccc(-c3ccc(C4(C(=O)O)CC4)cc3)cc2)c1CCOCc1cccc(Cl)c1 [Compound 16, 1-(4′-{4-[2-(3-Chloro-benzyloxy)-ethyl]-3-methyl-isoxazol-5-yl}-biphenyl-4-yl)-cyclopropanecarboxylic acid]
< 300 | Cc1noc(-c2ccc(-c3ccc(C4(C(=O)NS(C)(=O)=O)CC4)cc3)cc2)c1CC(F)(F)CCc1ccccc1 [Compound 75, N-(1-{4′-[4-(2,2-Difluoro-4-phenyl-butyl)-3-methyl-isoxazol-5-yl]-biphenyl-4-yl}-cyclopropanecarbonyl)-methanesulfonamide]
< 300 | Cc1noc(-c2ccc(-c3ccc(C4(C(=O)O)CC4)cc3)cc2)c1C(O)CCCc1ccc(C(F)(F)F)cc1 (stereo not shown) [Compound 39, 1-(4′-{4-[1-Hydroxy-4-(4-trifluoromethyl-phenyl)-butyl]-3-methyl-isoxazol-5-yl}-biphenyl-4-yl)-cyclopropanecarboxylic acid]
